Assay results reported in patent EP2246329A1, “4(1H)-pyridinone derivatives and their use as antimalaria agents” (Glaxo Group Limited, priority 2009, dated 2010).

Each molecule was assayed on Plasmodium falciparum (assay: In vitro anti-malarial activity against Plasmodium falciparum, IC50 assay / [3H]-Hypoxanthine incorporation assay). Conditions: Erythrocyte; Plasmodium falciparum strains in parasitized red blood cells, [3H]-hypoxanthine incorporation, 48 hours at 37°C.
Format: cell-based
Protocol: The compounds of this invention may be tested in one of several biological assays to determine the concentration of compound which is required to have a given pharmacological effect. In vitro anti-malarial activity against Plasmodium falciparum. IC50 assay / [^3H]-Hypoxanthine assay
The culture medium comprised RPMI 1640 with 25mM HEPES, sodium bicarbonate and glutamine (GIBCO™ cat. ref.: 52400), supplemented with 10% of pooled human sera AB (Irvine Scientific, cat. ref.: 5009) and HT supplement (0.15 mM hypoxanthine and 24 µM thymidine), (GIBCO™ cat. ref.: 41065). Human sera were decomplemented 30 min. at 56°C, aliquoted and stored frozen at -20°C until use in this culture medium.
This culture medium ("complete medium") was usually prepared fresh just before use and pre-warmed to 37°C.
Red blood cells O+ stock suspensions were prepared from whole blood bags coming from incomplete blood donation, provided by the Spanish Red Cross (<25 days after sampling). This "whole blood" was aliquoted and stored at 4°C.
To prepare red blood cells for the assay, the whole blood was centrifuged and washed 3 times with RPMI without serum. The upper phase, containing white blood cells was removed. The washed red blood cells were kept as a 50 % suspension in complete medium. The prepared cells were stored at 4°C and were employed in the assay at any time up to 4 days after preparation.
Test compounds were dissolved at 2 mg/ml in 100% DMSO on the day of the assay. If necessary, complete dissolution was achieved by gentle heating (the mixture was heated at a temperature <37°C) and sonication (sonication bath).
For IC50 determinations, 10 serial 2-fold dilutions were prepared in complete medium in the presence of a constant amount of DMSO. Any obvious signs of insolubility of the stock solutions in 100% DMSO or precipitation when these solutions were diluted in assay media, were recorded.
Plasmodium falciparum strains were maintained in complete medium at an hematocrit of 5% in continuous culture using a method adapted from that published by Trager and Jensen(1) and Traeger(2).
The parasitemia was calculated by counting the percentage of parasitized erythrocytes by optical microscopy. Thin films of blood were made every day from each culture flask, fixed with methanol and stained for 10 min. in Giemsa (Merck, cat. ref.: 1.09204) at 10 % in buffered water pH 7.2. The glass slides were observed and counted with an optical microscope (Nikon, Eclipse E200) equipped with a 100 X immersion oil objective.
The culture was maintained at an hematocrit of 5%, with a daily change of medium and was diluted when parasitemia had reached about 5%.
[^3H] Hypoxanthine incorporation assay was conducted using a method adapted from Desjardins et al. (3). The assays were performed in 96 wells flat bottom microplates. • 1. Serial dilutions of the test compounds (50µl of a 5X solution / well) were deposited in duplicate. Compounds of the invention were tested in this assay. Chloroquine and Atovaquone were used as control compounds for each assay. • 2. […] [^3H]-Hypoxanthine (Amersham Biosciences, cat. ref.: TRK74) was added extemporaneously to the inoculum suspension at a concentration of 1 µCi/ml (equating to […]). 200 µl of the resulting suspension was distributed into each well (other than the control well H12 described below) leading to a final volume of 250 µl per well, at 2% of hematocrit and 0.5 % of parasitemia / well. • 4. […]

IC50, < 0.125 µg/mL:
Cc1[nH]c(C)c(-c2ccc(C#CCN(C)Cc3ccccc3C(F)(F)F)cc2)c(=O)c1Cl [Example 3, 3-Chloro-2,6-dimethyl-5-{4-[3-(methyl{[2-(trifluoromethyl)phenyl]methyl}amino)-1-propyn-1-yl]phenyl}-4(1H)-pyridinone]
Cc1[nH]c(C)c(-c2ccc(C#CCN3CCC(c4ccc(OC(F)(F)F)cc4)CC3)cc2)c(=O)c1Cl.O=C(O)C(F)(F)F [Example 22, 3-Chloro-2,6-dimethyl-5-{4-[3-(4-{4-[(trifluoromethyl)oxy]phenyl}-1-piperidinyl)-1-propyn-1-yl]phenyl}-4(1H)-pyridinone trifluoroacetate]
CCCN(CC#Cc1ccc(-c2c(C)[nH]c(C)c(Cl)c2=O)cc1)Cc1ccc(OC(F)(F)F)cc1 [Example 20, 3-Chloro-2,6-dimethyl-5-(4-{3-[propyl({4-[(trifluoromethyl)oxy]phenyl}methyl)amino]-1-propyn-1-yl}phenyl)-4(1H)-pyridinone]
Cc1[nH]c(C)c(-c2ccc(C#CCN(C)Cc3ccc(S(C)(=O)=O)cc3)cc2)c(=O)c1Cl.Cl [Example 47, 3-Chloro-2,6-dimethyl-5-{4-[3-(methyl{[4-(methylsulfonyl)phenyl]methyl}amino)-1-propyn-1-yl]phenyl}-4(1H)-pyridinone hydrochloride]
COCCN(CC#Cc1ccc(-c2c(C)[nH]c(C)c(Cl)c2=O)cc1)Cc1ccc(OC(F)(F)F)cc1 [Example 9, 3-Chloro-2,6-dimethyl-5-(4-{3-[[2-(methyloxy)ethyl]({4-[(trifluoromethyl)oxy]phenyl}-methyl)amino]-1-propyn-1-yl}phenyl)-4(1H)-pyridinone]
Cc1[nH]c(C)c(-c2cccc(CN(C)Cc3ccc(OC(F)(F)F)cc3)c2)c(=O)c1Cl.Cl [Example 25, 3-Chloro-2,6-dimethyl-5-(3-{[methyl({4-[(trifluoromethyl)oxy]phenyl}methyl)amino]-methyl}phenyl)-4(1H)-pyridinone hydrochloride]
